Counter-ions that a name gives are not always drawn. Like-named read-outs stand apart in the source and are kept apart here. Each block holds one compound with its values, some of them ahead of it.
Columns and labels:
[1] = cited from earlier work
[2] = cited from earlier work; remark: listed apart in the source
[3] = human, in vivo
Procedure: (§1) Characteristic tandem-mass spectrometric fragmention of EtS, purchased from ABCR Karlsruhe/Germany, was obtained when analyzing EtS solution in product ion scan mode: deprotonated molecule (M-H)^−, m/z 125 and fragment ions m/z 80 and 97. An LC-MS/MS-method, which has previously been published for the determination of EtG (Weinmann 2004), was modified by inclusion of the transitions for EtS. Subsequent LC/MS/MS-analysis was performed in MRM-mode (m/z 125 to m/z 97 and m/z 80 and by monitoring the unfragmented precursor ion (m/z 125) of EtS (ion chromatograms of diluted reference solution see FIG. 1). A gradient elution with increasing acetonitrile concentration of the eluting solvent was used—all other chromatographic equipment was as described in the article by Weinmann et al. (Weinmann 2004).
(§2) Sample preparation was done by addition of D5-EtG and dilution of the urine sample prior to injection in the LC-MS/MS system. Quantification was performed using D5-EtG as internal standard.

[4] = Controlled drinking experiment with a healthy volunteer: urinary excretion profile by LC-MS/MS; conditions: for UAC (urine alcohol concentration): 540 ml wine, 49 g ethanol
Procedure: as §1, §2

- time detectable in urine [3]: up to 36 hours
Compound: CCOS(=O)(=O)O [EtS, ethyl sulfate]

- time since which urinary ethanol (UAC) had not been detectable ([4]; counted back from the 36 hours time point): 23 h
- UAC (urine alcohol concentration) ([4]; 0 h:min after ethanol uptake): 0.003 g %
- UAC (urine alcohol concentration) ([4]; 1:00 h:min after ethanol uptake): 0.022 g %
- UAC (urine alcohol concentration) ([4]; 2:06 h:min after ethanol uptake): 0.078 g %
- UAC (urine alcohol concentration) ([4]; 2:46 h:min after ethanol uptake): 0.082 g %
- UAC (urine alcohol concentration) ([4]; 8:00 h:min after ethanol uptake): 0.046 g %
- UAC (urine alcohol concentration) ([4]; 11:20 h:min after ethanol uptake): 0.003 g %
- UAC (urine alcohol concentration) ([4]; 13:20 h:min after ethanol uptake): 0 g %
- UAC (urine alcohol concentration) ([4]; 14:50 h:min after ethanol uptake): 0 g %
- UAC (urine alcohol concentration) ([4]; 16:40 h:min after ethanol uptake): 0 g %
- UAC (urine alcohol concentration) ([4]; 19:10 h:min after ethanol uptake): 0 g %
- UAC (urine alcohol concentration) ([4]; 21:30 h:min after ethanol uptake): 0 g %
- UAC (urine alcohol concentration) ([4]; 26:30 h:min after ethanol uptake): 0 g %
- UAC (urine alcohol concentration) ([4]; 32:00 h:min after ethanol uptake): 0 g %
- UAC (urine alcohol concentration) ([4]; 36:00 h:min after ethanol uptake): 0 g %
Compound: CCO [ethanol]

More lines, now with the values behind:

Compound: phosphatidylethanol [PEth]
- time detectable in whole blood after cessation of ethanol intake ([1]; whole blood): > 2 weeks

Compound: CCO[C@@H]1O[C@H](C(=O)O)[C@@H](O)[C@H](O)[C@H]1O [EtG, ethyl glucuronide]
- water solubility (in words) [2]: water-soluble
- detection in urine at the last time point [3]: positive
- time detectable following complete elimination of alcohol from the body ([1]; dose-dependently, after even minor amounts of alcohol like 10 grams): 4 days
- time detectable in hair [1]: months
- time detectable in urine after cessation of ethanol intake ([1]; urine): up to 5 days

Compound: fatty acid ethyl esters [FAEEs]
- stability in blood samples (in words) ([2]; blood samples, continued enzyme activity): not stable
- time detectable in hair [1]: several months
- time detectable in hair ([1]; listed as FAEE): months
- time detectable in serum and erythrocytes after drinking ([1]; serum and erythrocytes): up to 24 h
- time detectable in serum after cessation of ethanol intake ([1]; serum): up to 24 h

From patent US20060084134A1, “Direct ethanol metabolite ethyl sulfate as an useful diagnostic and therapeutic marker of alcohol consumption” (priority 2004, published 2006)
